Source: patent US20250362286A1, “SCREENING MODELS AND METHODS OF CANCER TREATMENT” (The Regents of the University of California, priority 2022, published 2025)
Entries after “also recorded” stand apart in the source; their conditions may differ.

Legend:
MDAs [1] = assay: flow cytometry of CD44+/CD24- CSC population in MDAs; assay type: cell-based
Excerpt: (§1) To further assess differentiation status, RT-PCR and flow cytometry (FC) was used to quantify expression of the CSC stemness biomarker signature CD44^+/CD24^− in MDAs. At the population level, MDAs increased CD24 mRNA expression ˜14-fold with ISX9 treatment after 7 days (FIG. 3E). FIG. 3E depicts RT-qPCR of CD24 expression in MD As treated with vehicle or ISX9. […] (FIG. 3F, FIG. 3G). FIG. 3F and FIG. 3G depicts flow cytometry analysis of MDAs treated with vehicle or ISX9.
Cells in 2D tissue culture and HD Collagen I were treated with ISX9 daily for 7 days, dissociated and flow-sorted. […] These figures depict fluorescence profiles of CD44/CD24 in MDAs treated with vehicle or ISX9 for 7 days in (FIG. 4A) 2D TC or (FIG. 4B) HD Col1. FIG. 4C depicts a flow cytometry analysis of CD44^+/CD24^− MDA cells treated with vehicle or ISX9.

[2] = once daily 16 mg/kg ip for several weeks, cited from earlier work
MDAs [3] = assay: flow cytometry of CDH1+ MDA cells in 2D and 3D Collagen I densities; assay type: cell-based
Protocol: To determine whether induction of MET was specific to the HD Collagen I condition or generally applicable to all ISX9-treated cells in a 3D Collagen condition, CDH1^+ cells in 2D, and multiple 3D Collagen I densities were flow-sorted (1 mg/mL, 2.5 mg/mL, and 6 mg/mL Col1) (FIG. 4F, FIG. 4G).) FIG. 4F depicts fluorescence profiles of CDH1 in MDAs treated with vehicle or ISX9 for 7 days in 2D TC, LD Col1, MD Col1, or HD Col1 conditions. FIG. 4G depicts a flow cytometry analysis of CDH1^+ MDA cells treated with vehicle or ISX9 in 2D TC, LD Col1, MD Col1, or HD Col1.

MDAs [4] = assay: CytoTox-Fluor cytotoxicity assay; assay type: cell-based; conditions: 2D, 1-40 μM
Excerpt: FIG. 7C depicts the metabolic activity, cytotoxicity, and relative CD24 expression dose-response to ISX9.

PIM025 PDOs = assay: RT-qPCR of CD24 and CDH1 expression in PDOs; assay type: cell-based; conditions: 20 μM, 48 h
Protocol: (§2) As a first step towards assessing the efficacy of ISX9 to differentiate patient-derived tumor cells, PDOs from the PIM025 (“hybrid epithelial” EMT status) and PA14-13 (“hybrid mesenchymal” EMT status) TNBC PDX tumors were produced and treated with 20 μM ISX9 for 48 h. […] FIG. 8D and FIG. 8E depict RT-qPCR of CD24 and CDH1 expression in PIM025 PDOs and PA-14-13 PDOs, respectively.

PA-14-13 PDOs [5] = assay: RT-qPCR of CD24 and CDH1 expression in PDOs; assay type: cell-based; conditions: 20 μM, 48 h
Protocol: as §2

PA-14-13 PDOs [6] = assay: FACS analysis of CD44+/CD24- CSCs and CDH1+ cells in PDOs; assay type: cell-based
Excerpt: (§3) These figures depict flow cytometry analysis of CD44*/CD24 CSC in (FIG. 8F and FIG. 8G) PIM025 PDOs and (FIG. 8H and FIG. 8I) PA-14-13 PDOs treated with vehicle or ISX9.
(§4) FIG. 8J and FIG. 8K depict a flow cytometry analysis of CDH1^+ cells in PIM025 PDOs treated with vehicle or ISX9. FIG. 8L and FIG. 8M depict a flow cytometry analysis of CDH1^+ cells in PA-14-13 PDOs treated with vehicle or ISX9.

PIM-025 PDOs = assay: as above; assay type: cell-based
Excerpt: as §3, §4

MDAs [7] = assay: chemo-susceptibility to doxorubicin after pre-treatment, MTS assay; assay type: cell-based; conditions: 7d pre-treatment in HD Col1, then chemotherapy 3d; normalized to vehicle control
Protocol: To determine whether ISX9 could be used in a similar therapeutic function, MDAs and R40P cells were treated with vehicle or ISX9 for 7d in HD Col1, followed by chemotherapy for 3d and MTS assay to quantify viable cells.

MDAs [8] = assay: RT-qPCR of CD24 expression in MDAs, 7 days; assay type: cell-based; conditions: after 7 days, population level
Excerpt: as §1

LL/2 lung cancer cells = assay: western blot of EMT transcription factor TWIST1; assay type: cell-based; conditions: HD Col1, 7 days
Excerpt: FIG. 4E depicts a western blot analysis of EMT transcription factor TWIST1 in LL/2 lung cancer cells treated with vehicle or ISX9 for 7 days in 2D TC or HD Col1.

Notch1 = assay: immunofluorescence staining of cleaved intracellular domain of Notch1 in MDAs; assay type: cell-based; conditions: vs vehicle, even in 2D culture
Excerpt: FIG. 3B depicts immunofluorescence staining of cell nuclei and cleaved intracellular domain of Notch1 in vehicle and Isx9 treated MDAs.

[9] = tested on: Notch-activated epicardium-derived cells (NECs); conditions: after myocardial infarction; cited from earlier work
MDA-MB-231s = assay: CD24 mRNA expression in 2D (differentiation screening); assay type: cell-based
Protocol: FIG. 3H depicts relative CD24 mRNA expression. CD24 expression was an early indicator of response to ISX9 in 2D across several TNBC cell lines. Treatment screening of several different TNBC cell lines with ISX9 in 2D for 48h yielded four responders, as determined by CD24 mRNA expression (FIG. 3H).
These analogs were screened for their potential to differentiate MDA-MB-231s, yielding at least one new hit, CR-1 (˜98% similarity), which induced a ˜6-fold upregulation of CD24 at a concentration of 200 μM at 48h in 2D (FIG. 6).

O=C(NC1CC1)c1cc(-c2cccs2)on1 [ISX9, Isoxazole 9]
population of CD44+/CD24- CSCs (MDAs [1]; 2D and HD Collagen I, treated daily for 7 days): reducing the population of CD44^+/CD24^− CSCs to a similar degree
CD44+/CD24- cells, share of the population (MDAs [1]; with treatment, vehicle ˜100%): ~67%
tolerability (signs or symptoms) ([2]; 16 mg/kg): well-tolerated; also recorded: no signs or symptoms of lethargy, weight loss or decreased appetite
serum biochemistry and hematology profiles [2]: normal
CDH1+ induction (MDAs [3]; 1 mg/mL and 2.5 mg/mL Col1, 7 days): unable to re-express CDH1^+to similar levels
effect on CDH1+ cells (MDAs [3]; 2D, 7 days): small effect
population of CDH1+ cells (MDAs [3]; HD (6 mg/mL) Col1, 7 days): highest population of CDH1^+ cells
cytotoxicity (MDAs [4]): without any observable increase in cytotoxicity
CDH1 mRNA expression (PIM025 PDOs): slight increase
upregulation of CD24 mRNA transcription (PIM025 PDOs): 1.5 fold
upregulation of CD24 (PA-14-13 PDOs [5]): ~1,080 fold
upregulation of CDH1 (PA-14-13 PDOs [5]): ~41 fold
CD44+/CD24- CSCs (FACS) (PA-14-13 PDOs [6]; after 6 days of treatment): reduction in CD44+/CD24− CSCs
CDH1+ cells (FACS) (PA-14-13 PDOs [6]; vs vehicle): enrichment in CDH1^+ cells
CD44+/CD24- CSCs (FACS) (PIM-025 PDOs; after 6 days of treatment): reduction in CD44+/CD24− CSCs
CDH1+ cells (FACS) (PIM-025 PDOs; vs vehicle): slight reduction in CDH1^+ cells
decrease in IC50 to doxorubicin (MDAs [7]): ~14.5 fold
increase of CD24 mRNA expression (MDAs [8]): ~14 fold
TWIST1 protein expression (WB) (LL/2 lung cancer cells): reduced TWIST1 protein expression
localization of activated Notch1 (cleaved intracellular domain) (Notch1): strong nucleolar localization
fibrosis and ventricular functional decline after MI [9]: failed to mitigate fibrosis or avert ventricular functional decline after MI
CD24 mRNA expression (FC) (MDA-MB-231s; 48h): ~31.6
CD24 mRNA dose-response (MDA-MB-231s; concentration range 1-40 μM): upregulation of CD24 mRNA
